# Reference: patent US7220773B2, “Pyrrole derivative” (Dainippon Sumitomo Pharma Co., Ltd., priority 2001, dated 2007)
# System: male db/db mice
# Experiment: Hypoglycemic activity in db/db mice, oral administration once a day for 2 weeks
# Format: in vivo
# Settings: Mus musculus, po, 336 h, dosage 30 mg/kg orally once a day for 2 weeks in 0.5% carboxymethyl cellulose, male db/db mice (7 to 8 weeks old), versus vehicle on last day
# Procedure: The test compounds described in Examples (these compound were made into a free form from a salt form, a sodium salt or calcium salt, if necessary) were dissolved or suspended in 0.5% carboxymethyl cellulose solution. Mice were forced to orally administer the test compound as to administer the total amount of 30 mg/kg or 100 mg/kg to male db/db mice (7 to 8 weeks old) once a day for 2 weeks. On last day, to the blood just taken from tail vein was added perchloric acid to remove proteins and then the blood sugar was measure by glucose CII Test Waco (Wako Pure Chemical Ind.). Hypoglycemic activity was calculated as following formula: [formula] • A: Blood sugar level of Vehicle (on last day) • B: Blood sugar level of test compound-administered group (on last day)
row,Compound,inhibition in vivo at 30 mg/kg
1,COc1cccc(C(=O)c2cccn2C/C=C/c2cccc(OC(C)C(=O)O)c2)c1 (stereo not drawn) [Example 63],19%
2,CCc1ccc(C(=O)c2cccn2C/C=C/c2cccc(O[C@@H](C)C(=O)O)c2)cc1 [Example 91],55%
3,C[C@H](Oc1cccc(/C=C/Cn2cccc2C(=O)c2ccc3c(c2)OCO3)c1)C(=O)O [Example 92],46%
4,Cc1ccc(C(=O)c2cccn2C/C=C/c2cccc([C@@H](C)C(=O)O)c2)cc1 [Example 110],17%
5,Cc1ccc(C(=O)c2cccn2C/C=C/c2cccc([C@H](C)C(=O)O)c2)cc1 [Example 111],61%
6,Cc1ccc(C(=O)c2cccn2C/C=C/c2cccc(SC(C)C(=O)O)c2)cc1 (stereo not drawn) [Example 126],56%
7,CC(Oc1cccc(/C=C/Cn2cccc2C(=O)c2ccc(C(F)(F)F)cc2)c1)C(=O)O (stereo not drawn) [Example 143],21%
8,CC(Oc1cccc(/C=C/Cn2cccc2C(=O)c2cccc(Oc3ccc(C(F)(F)F)cc3)c2)c1)C(=O)O (stereo not drawn) [Example 155],57%
9,COc1ccc(C(=O)c2cc(C)cn2C/C=C/c2cccc(O[C@@H](C)C(=O)O)c2)cc1 [Example 158],24%
10,CC(Oc1cccc(/C=C/Cn2cccc2C(=O)Nc2ccc(OC(F)(F)F)cc2)c1)C(=O)O (stereo not drawn) [Example 179],22%
11,C[C@H](Oc1cccc(/C=C/Cn2cccc2C(=O)c2ccc3c(c2)CCO3)c1)C(=O)O [Example 186],44%
12,Cc1ccc(CC(=O)c2cccn2C/C=C/c2cccc(O[C@@H](C)C(=O)O)c2)cc1 [Example 191],15%

# Same assay, conditions: Mus musculus, po, 336 h, dosage 100 mg/kg orally once a day for 2 weeks in 0.5% carboxymethyl cellulose, male db/db mice (7 to 8 weeks old), versus vehicle on last day
row,Compound,inhibition in vivo at 100 mg/kg
1,Cc1ccc(C(=O)c2cccn2C/C=C/c2cccc(C(C)(C)C(=O)O)c2)cc1 [Example 39],65%
2,O=C(O)COc1cccc(/C=C/Cn2cccc2C(=O)c2ccc(Cl)cc2)c1 [Example 53],23%
3,Cc1ccc(C(=O)c2ccn(C/C=C/c3cccc(SC(C)C(=O)O)c3)c2)cc1 (stereo not drawn) [Example 128],27%
4,Cc1ccc(NC(=O)c2cccn2C/C=C/c2cccc(SCC(=O)O)c2)cc1 [Example 135],16%
5,Cc1ccc(C(=O)c2cccn2C/C=C/c2cccc(O[C@H](C)C(=O)O)c2)cc1 [Example 139],55%
6,Cc1ccc(C(=O)c2cccn2C/C=C/c2cccc(O[C@@H](C)C(=O)O)c2)cc1 [Example 142],55%
7,CCC(Cc1cccc(/C=C/Cn2cccc2C(=O)c2ccc(C)cc2)c1)C(=O)O (stereo not drawn) [Example 165],68%
8,COc1ccccc1NC(=O)c1cccn1C/C=C/c1cccc(SCC(=O)O)c1 [Example 171],20%

# Same assay, conditions: dosage 30 mg/kg orally once a day for 2 weeks in 0.5% carboxymethyl cellulose, male db/db mice (7 to 8 weeks old), versus vehicle on last day
row,Compound,Hypoglycemic activity(%)
1,Cc1ccc(CC(=O)c2cccn2C/C=C/c2cccc(O[C@@H](C)C(=O)O)c2)cc1 [Example 201],18%
